{"source": "patent US20100144003A1", "about": "“INDUCTION OF MICROBIAL SECONDARY METABOLITES” (AQUAPHARM BIO-DISCOVERY LIMITED, priority 2007, published 2010)", "tested_on": "Gram-positive bacterial strains", "assay": "activity against Gram-positive bacterial strains", "format": "cell-based", "conditions": "compound produced by AQP4511 in PDY medium supplemented with 0.5 mM NaNO3", "method": "A Streptomyces sp. strain AQP4511 produced a red orange compound, which has a naphthoquinone structure, in a PDY medium supplemented with 0.5 mM NaNO3."}
{"compound": "COc1cc(O)c2c(c1)C(=O)C1=C(C2=O)C(OC(C)=O)C(O)C(C)O1", "note": "(stereo not shown) [Gunacin]", "values": [{"measurement": "activity against most of Gram-positive bacterial strains", "result": "very strong activity"}]}
